This is an account of results in ChEMBL document CHEMBL4196084 (Eur J Med Chem, 2018).

As a reminder, the IC50 is the point on the concentration scale where inhibition reaches its midpoint. By Ki is commonly meant a measure of affinity in units of concentration, obtained from inhibition or displacement. Usually Papp stands for a coefficient for how fast a substance crosses the barrier. Low values mean poor permeation, high ones ready permeation.

The target of data set [1] is T1, Muscarinic acetylcholine receptor M1 (Homo sapiens, UniProt P11229).
T1 sequence (P11229 whole entry): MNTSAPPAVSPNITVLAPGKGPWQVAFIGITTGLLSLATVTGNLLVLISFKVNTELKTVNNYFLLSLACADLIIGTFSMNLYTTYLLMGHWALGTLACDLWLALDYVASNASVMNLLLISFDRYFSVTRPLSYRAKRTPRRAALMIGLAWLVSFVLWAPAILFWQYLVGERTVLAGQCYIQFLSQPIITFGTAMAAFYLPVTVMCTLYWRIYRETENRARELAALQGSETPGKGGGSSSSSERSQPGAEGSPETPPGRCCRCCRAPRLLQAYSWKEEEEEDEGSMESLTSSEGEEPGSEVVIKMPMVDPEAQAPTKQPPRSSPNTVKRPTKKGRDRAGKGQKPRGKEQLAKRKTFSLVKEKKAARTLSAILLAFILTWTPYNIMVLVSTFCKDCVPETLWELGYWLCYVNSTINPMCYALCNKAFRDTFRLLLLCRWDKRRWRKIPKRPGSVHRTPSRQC
Format: functional, cell-based, CHO.

The target of data set [2] is T2, Acetylcholinesterase (Homo sapiens, UniProt P22303).
T2 sequence (P22303 whole entry): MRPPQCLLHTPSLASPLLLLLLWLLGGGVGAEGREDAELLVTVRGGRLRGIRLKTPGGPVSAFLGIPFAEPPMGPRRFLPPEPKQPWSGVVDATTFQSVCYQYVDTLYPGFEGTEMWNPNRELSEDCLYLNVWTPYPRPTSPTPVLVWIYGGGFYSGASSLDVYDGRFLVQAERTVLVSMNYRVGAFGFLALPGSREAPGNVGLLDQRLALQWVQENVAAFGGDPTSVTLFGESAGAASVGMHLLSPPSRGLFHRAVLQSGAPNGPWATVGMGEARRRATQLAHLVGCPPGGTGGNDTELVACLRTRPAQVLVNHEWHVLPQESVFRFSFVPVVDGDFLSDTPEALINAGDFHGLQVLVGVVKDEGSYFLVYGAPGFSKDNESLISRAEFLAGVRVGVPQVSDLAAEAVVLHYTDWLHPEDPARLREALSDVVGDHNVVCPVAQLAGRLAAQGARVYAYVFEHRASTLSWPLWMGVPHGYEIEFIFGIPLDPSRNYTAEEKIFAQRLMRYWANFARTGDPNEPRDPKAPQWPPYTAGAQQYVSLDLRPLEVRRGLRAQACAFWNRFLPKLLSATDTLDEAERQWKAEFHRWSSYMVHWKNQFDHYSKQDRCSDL
Description: Inhibition of human erythrocyte AChE using acetylthiocholine iodide as substrate preincubated for 5 mins followed by substrate addition measured at 2 mins time interval by Ellman's method
The target of data set [3] is Cholinesterase (Homo sapiens, UniProt P06276).
Chain of Cholinesterase (P06276 whole entry): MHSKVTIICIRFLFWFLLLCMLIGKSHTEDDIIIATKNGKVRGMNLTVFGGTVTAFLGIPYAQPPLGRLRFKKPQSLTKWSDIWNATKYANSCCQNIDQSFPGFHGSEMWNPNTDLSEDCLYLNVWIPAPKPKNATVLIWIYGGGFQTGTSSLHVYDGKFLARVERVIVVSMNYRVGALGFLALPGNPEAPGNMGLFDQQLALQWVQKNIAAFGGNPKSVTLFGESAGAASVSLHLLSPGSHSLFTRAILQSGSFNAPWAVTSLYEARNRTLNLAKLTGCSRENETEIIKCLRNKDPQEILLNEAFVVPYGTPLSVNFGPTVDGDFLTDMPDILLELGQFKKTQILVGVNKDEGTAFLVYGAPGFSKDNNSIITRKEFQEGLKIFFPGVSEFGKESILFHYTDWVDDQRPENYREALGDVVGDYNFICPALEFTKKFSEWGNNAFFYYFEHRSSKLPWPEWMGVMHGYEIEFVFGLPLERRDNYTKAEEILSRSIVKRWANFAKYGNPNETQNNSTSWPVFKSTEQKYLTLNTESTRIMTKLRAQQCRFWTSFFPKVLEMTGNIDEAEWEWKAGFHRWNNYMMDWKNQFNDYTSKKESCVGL
Description: Inhibition of human plasmatic BuChE using butyrylthiocholine iodide as substrate preincubated for 5 mins followed by substrate addition measured at 2 mins time interval by Ellman's method
In data set [4] the target is T2, Acetylcholinesterase. Put plainly: Mixed type inhibition of human erythrocyte AChE assessed as enzyme-inhibitor complex using varying levels of acetylthiocholine iodide as substrate preincubated for 5 mins followed by substrate addition by Lineweaver-Burk plot analysis.
In data set [5] the target is T2, Acetylcholinesterase. Put plainly: Mixed type inhibition of human erythrocyte AChE assessed as enzyme-substrate-inhibitor complex using varying levels of acetylthiocholine iodide as substrate preincubated for 5 mins followed by substrate addition by Lineweaver-Burk plot analysis.
The subject of data set [6] is HepG2. Put plainly: cells. Format: ADME, cell-based. Conditions: Homo sapiens, HepG2, 24 h.
Description: Cytotoxicity against human HepG2 cells assessed as reduction in cell viability after 24 hrs by MTT assay
Data set [7] in a line: Solubility of the compound in PBS buffer. Format: physicochemical.
Data set [8] in a line: in vitro. The following applies: PAMPA. On the technique in general: The PAMPA barrier holds no transporters, so it reflects passive diffusion.
The nature of data set [9]: in vitro. Conditions: PAMPA. This is another data set of the same source.
For data set [10], the target named is T3, Muscarinic acetylcholine receptor M1 (Homo sapiens) (UniProt P11229).
T3 sequence (whole entry): T1 sequence (P11229 whole entry)
Put plainly: Positive allosteric modulation of human M1 mAChR expressed in CHO cells assessed as increase in oxotremorine M-stimulated calcium influx preincubated for 10 mins followed by oxotremorine M addition by Fluo-4 NW dye based fluorescence assay. Format: functional, cell-based.

The structures appear in SMILES notation. Calls of active or inactive are those of the source. The calls are words filed in the database; no cut-off is given here. Some results are limits rather than exact numbers.

For `COc1ccc(Cn2cc(C(=O)NCCCCCNc3c4c(nc5cc(Cl)ccc35)CCCC4)c(=O)c3ccccc32)cc1`, the IC50 in data set [1] worked out at 3.27 µM; in data set [2], 0.18 µM; in data set [3], 7.74 µM.
With `COc1ccc(Cn2cc(C(=O)NCCCNc3c4c(nc5cc(Cl)ccc35)CCCC4)c(=O)c3ccccc32)cc1`, the IC50 turned out to be 4.01 µM in [1], 4.99 µM in data set [6], 0.0419 µM in [2] and 3.72 µM in [3]. The Ki came out at 0.00328 µM in [4] and 0.00157 µM in data set [5]. In addition, the solubility entry in [7] was “Insoluble”. In data set [8], this compound gave a Papp at 100 µM of 3.08 ×10⁻⁶ cm/s.
With `COc1ccc(Cn2cc(C(=O)NCCCCCCCNc3c4c(nc5cc(Cl)ccc35)CCCC4)c(=O)c3ccccc32)cc1`, the IC50 in [1] is 5.35 µM; in data set [6] it was greater than 40 µM; in data set [2] it was 0.0517 µM; in data set [3], 3.34 µM. The solubility entry in [7] is listed as “Insoluble”. This compound also showed a Papp at 100 µM in data set [8] of 2.35 ×10⁻⁶ cm/s.
Regarding `CC(=O)[C@H]1CC[C@H]2[C@@H]3CCC4=CC(=O)CC[C@]4(C)[C@H]3CC[C@]12C` [PROGESTERONE], the Papp at 100 µM is 8.6 ×10⁻⁶ cm/s in data set [8] and 10.8 ×10⁻⁶ cm/s in [9].
On to `COc1ccc(Cn2cc(C(=O)NCCCNc3c4c(nc5ccccc35)CCCC4)c(=O)c3ccccc32)cc1`, for which the IC50 turned out to be 0.455 µM in data set [1], 2.17 µM in [6], 0.129 µM in [2] and 0.674 µM in data set [3]. The solubility entry in data set [7] is on record as “Insoluble”. In data set [8], this compound came in with a Papp at 100 µM of 2.6 ×10⁻⁶ cm/s.
As to `COc1ccc(Cn2cc(C(=O)NCCCNc3c4c(nc5ccc(OC)cc35)CCCC4)c(=O)c3ccccc32)cc1`, the IC50 was found to be 2.48 µM in data set [1], 2.42 µM in data set [6], 2.24 µM in data set [2] and 1.03 µM in [3]. In addition, the solubility result in [7] was “Insoluble”. In data set [8], this compound registered a Papp at 100 µM of 4.85 ×10⁻⁶ cm/s.
For `COc1ccc(Cn2cc(C(=O)NCCNc3c4c(nc5ccc(OC)cc35)CCCC4)c(=O)c3ccccc32)cc1`, the IC50 in [1] is 3.71 µM; in [6], 1.63 µM; in data set [2], 2.64 µM; in data set [3] it was 0.408 µM. Moreover, in data set [7], the solubility result is reported as “Insoluble”. In [8], this compound gave a Papp at 100 µM of 1.65 ×10⁻⁶ cm/s.
As to `COc1ccc(Cn2cc(C(=O)NCCCCCCCCNc3c4c(nc5ccccc35)CCCC4)c(=O)c3ccccc32)cc1`, the IC50 in [1] was 2.05 µM; in data set [2], 0.768 µM; in data set [3], 1.28 µM.
On to `COc1ccc(Cn2cc(C(=O)NCCCCNc3c4c(nc5ccc(OC)cc35)CCCC4)c(=O)c3ccccc32)cc1`, for which the figures for the 50% inhibitory concentration (IC50) in data set [1], in data set [2] and in data set [3] were 1.07 µM, 9.5 µM and 1.08 µM, respectively.
For `COc1ccc(Cn2cc(C(=O)NCCCCCCCCNc3c4c(nc5ccc(OC)cc35)CCCC4)c(=O)c3ccccc32)cc1` the same measures were 7.86 µM, 74.3 µM and 12.4 µM.
Consider `COc1ccc(Cn2cc(C(=O)NCCCCCCNc3c4c(nc5ccc(OC)cc35)CCCC4)c(=O)c3ccccc32)cc1`, for which the IC50 was determined as 8.61 µM in data set [1], 10 µM in [2] and 16.6 µM in [3].
Consider `COc1ccc(Cn2cc(C(=O)NCCCCCCNc3c4c(nc5ccccc35)CCCC4)c(=O)c3ccccc32)cc1`, for which the IC50 in data set [1] stood at 1.49 µM; in data set [6], 2.72 µM; in data set [2], 0.194 µM; in data set [3] it was 0.28 µM. Besides, the solubility result in [7] is reported as “Insoluble”. The compound also gave a Papp at 100 µM in [8] of 2.28 ×10⁻⁶ cm/s.
For `COc1ccc(Cn2cc(C(=O)NCCCCCCCNc3c4c(nc5ccccc35)CCCC4)c(=O)c3ccccc32)cc1`, the IC50 came to 2.14 µM in data set [1], 0.194 µM in [2] and 1.19 µM in data set [3].
For `COc1ccc(Cn2cc(C(=O)NCCCCNc3c4c(nc5cc(Cl)ccc35)CCCC4)c(=O)c3ccccc32)cc1` the same measures were 4.11 µM, 0.0896 µM and 3.12 µM.
The matching figures for `COc1ccc(Cn2cc(C(=O)NCCCCCCCCNc3c4c(nc5cc(Cl)ccc35)CCCC4)c(=O)c3ccccc32)cc1`: 9.45 µM, 0.119 µM and 37.2 µM.
For `CN(C)CCCN1c2ccccc2Sc2ccccc21` [PROMAZINE], the Papp at 100 µM in [8] was 6.6 ×10⁻⁶ cm/s; in [9], 9.4 ×10⁻⁶ cm/s.
As to `COc1ccc(Cn2cc(C(=O)NCCNc3c4c(nc5cc(Cl)ccc35)CCCC4)c(=O)c3ccccc32)cc1`, the IC50 in data set [1] was determined as 4.23 µM; in data set [6], 3.48 µM; in data set [2], 0.0745 µM; in data set [3] it was 0.0833 µM. In addition, in data set [7], the solubility entry is reported as “Insoluble”. Also, the Papp at 100 µM in [8] is 2.37 ×10⁻⁶ cm/s.
Consider `COc1ccc(Cn2cc(C(=O)NCCCCCNc3c4c(nc5ccc(OC)cc35)CCCC4)c(=O)c3ccccc32)cc1`, for which the IC50 in [1] is 1.37 µM; in [2], 8.02 µM; in [3], 6.16 µM.
Turning to `COc1ccc(Cn2cc(C(=O)NCCCCCCNc3c4c(nc5cc(Cl)ccc35)CCCC4)c(=O)c3ccccc32)cc1`, the IC50 in [1] is 2.78 µM; in data set [2] it was 0.0941 µM; in [3], 13.4 µM.
Consider `COc1ccc(Cn2cc(C(=O)NCCNc3c4c(nc5ccccc35)CCCC4)c(=O)c3ccccc32)cc1`, for which the IC50 in data set [1] amounted to 0.658 µM; in data set [6], 1.44 µM; in data set [2], 0.187 µM; in [3], 0.0589 µM. Further, the solubility result in [7] is listed as “Insoluble”. Also, the Papp at 100 µM in data set [8] is 1.8 ×10⁻⁶ cm/s.
As for `COc1ccc(Cn2cc(C(=O)NCCCCNc3c4c(nc5ccccc35)CCCC4)c(=O)c3ccccc32)cc1`, the figures for the IC50 in data set [1], in data set [2] and in [3] were 1.59 µM, 0.491 µM and 1.32 µM, respectively.
For the compound `Nc1c2c(nc3cc(Cl)ccc13)CCCC2`, the IC50 in data set [1] was 6.09 µM; in data set [6] it was 43.2 µM.
For the compound `COc1ccc(Cn2cc(C(=O)NCCCCCCCNc3c4c(nc5ccc(OC)cc35)CCCC4)c(=O)c3ccccc32)cc1`, the IC50 worked out at 11.4 µM in data set [1], 0.6 µM in [6], 1.53 µM in [2] and 49.3 µM in [3]. In addition, the solubility result in data set [7] is “Insoluble”. For the same compound, the Papp at 100 µM in [8] was found to be 9.25 ×10⁻⁶ cm/s.
Regarding `COc1ccc(Cn2cc(C(=O)NCCCCCNc3c4c(nc5ccccc35)CCCC4)c(=O)c3ccccc32)cc1`, the results for the concentration for half-maximal inhibition (IC50) in [1], in [2] and in data set [3] were 1.48 µM, 0.293 µM and 0.823 µM, respectively.
As to `COc1ccc(Cn2cc(C(=O)O)c(=O)c3ccccc32)cc1`, in data set [10], the result was Active. In addition, the IC50 in data set [2] and in [3] was greater than 1000 µM throughout.
As for `COc1ccc2nc3c(c(N)c2c1)CCCC3`, the IC50 in data set [1] came to 3.71 µM; in data set [6] it was 44.4 µM.
For the compound `C[C@]12CC[C@H]3[C@@H](CCC4=CC(=O)CC[C@@]43C)[C@@H]1CC[C@@H]2O` [TESTOSTERONE], the Papp at 100 µM in data set [8] turned out to be 8.5 ×10⁻⁶ cm/s; in [9], 11.6 ×10⁻⁶ cm/s.
